Assay results as given in article PMC7718874, “Coupling of H3K27me3 recognition with transcriptional repression through the BAH-PHD-CPL2 complex in Arabidopsis” (Nature Communications, 2020).

Tests used:
[1] = test system: nascent RNA (Pol II transcription rate) of AGO5, SUC5 and downstream nontarget genes; assay: Nuclear run-on assay with or without FLA (flavopiridol) treatment; design: species or system Arabidopsis; conditions: for NRO-qPCR, AT1G71900 / NRO-qPCR, AT2G27900 / NRO-qPCR, FT / NRO-qPCR, SUC5 / NRO-qPCR, AGO5: Figure 7c
Experimental: FLA treatment assay was performed as previous report. In brief, 2-week-old seedlings were collected and incubated with 200 μM FLA or mock solution (DMSO) overnight. The treated seedlings were subjected to total RNA extraction.
Nuclear run-on assay was performed as previous report with minor changes. In brief, after nuclei isolation with buffer (0.25 M sucrose, 15 mM PIPES pH 6.8, 5 mM MgCl2, 60 mM KCl, 15 mM NaCl, 1 mM CaCl2, 0.9% Triton X-100, and protease inhibitor cocktail), the nuclear pellet was resuspended with nuclei storage buffer (50 mM Tris-HCl pH 8, 0.1 mM EDTA, 5 mM MgCl2 and 40% glycerol) and mixed with transcription buffer (10 mM Tris-HCl, pH 8, 2.5 mM MgCl2, 150 mM KCl, 2 mM DTT, 80 units RNase inhibitor, 0.5 mM BrUTP, 1 mM ATP, 1 mM GTP, 1 mM CTP, 0.5 mM UTP, and 0.2% sarkosyl). After incubation at 30 °C for 15 min, the run-on reaction was stopped by adding Trizol reagent (Thermo). The nuclear RNAs were extracted and treated with DNase. The DNA-free RNAs were then inoculated with 2 μg anti-BrdU antibody (abcam) at room temperature for 30 min and precipitated by Dynabeads (Thermo). After two times washing, RNAs were extracted using Trizol reagent (Thermo). cDNAs were synthesized using SuperScript IV Reverse Transcriptase (Thermo) and subjected to qPCR analysis.

CDK kinases = conditions: cited from earlier work

CN1CC[C@H](c2c(O)cc(O)c3c(=O)cc(-c4ccccc4Cl)oc23)[C@H](O)C1 [FLA, flavopiridol]
nascent RNA levels upon FLA treatment (in words) ([1]; 200 μM FLA overnight, 2-week-old seedlings, AGO5, SUC5 and downstream nontarget genes, BrUTP run-on, qPCR, normalized to 18 S rRNA, three biological repeats): greatly reduced | difference of nascent RNA levels between genotypes upon FLA treatment (in words) ([1]; 200 μM FLA overnight, Fig. 7c, three biological repeats): no obvious changes were observed between different genotypes | NRO-qPCR, AT1G71900 ([1]; Col-0 FLA, Repeat 1): 2e-5 | NRO-qPCR, AT2G27900 ([1]; Col-0 FLA, Repeat 1): 4.5e-5 | NRO-qPCR, FT ([1]; Col-0 FLA, Repeat 1): 2e-6 | NRO-qPCR, SUC5 ([1]; Col-0 FLA, Repeat 1): 2e-6 | NRO-qPCR, AT1G71900 ([1]; Col-0 FLA, Repeat 2): 1.6e-5 | NRO-qPCR, AT2G27900 ([1]; Col-0 FLA, Repeat 2): 1.8e-5 | NRO-qPCR, FT ([1]; Col-0 FLA, Repeat 2): 2e-6 | NRO-qPCR, SUC5 ([1]; Col-0 FLA, Repeat 2): 1.2e-5 | NRO-qPCR, AT1G71900 ([1]; Col-0 FLA, Repeat 3): 2e-6 | NRO-qPCR, AT2G27900 ([1]; Col-0 FLA, Repeat 3): 4.7e-5 | NRO-qPCR, SUC5 ([1]; Col-0 FLA, Repeat 3): 5e-6 | NRO-qPCR, AGO5 ([1]; aipp2/paipp2 FLA, Repeat 1): 1.35e-7 | NRO-qPCR, AT1G71900 ([1]; aipp2/paipp2 FLA, Repeat 1): 1e-5 | NRO-qPCR, AT2G27900 ([1]; aipp2/paipp2 FLA, Repeat 1): 3.1e-5 | NRO-qPCR, FT ([1]; aipp2/paipp2 FLA, Repeat 1): 5e-6 | NRO-qPCR, SUC5 ([1]; aipp2/paipp2 FLA, Repeat 1): 1.1e-5 | NRO-qPCR, AT1G71900 ([1]; aipp2/paipp2 FLA, Repeat 2): 1.3e-5 | NRO-qPCR, AT2G27900 ([1]; aipp2/paipp2 FLA, Repeat 2): 2.6e-5 | NRO-qPCR, FT ([1]; aipp2/paipp2 FLA, Repeat 2): 4e-6 | NRO-qPCR, SUC5 ([1]; aipp2/paipp2 FLA, Repeat 2): 1.2e-5 | NRO-qPCR, AGO5 ([1]; aipp2/paipp2 FLA, Repeat 3): 2.05e-6 | NRO-qPCR, AT2G27900 ([1]; aipp2/paipp2 FLA, Repeat 3): 2.3e-5 | NRO-qPCR, AT1G71900 ([1]; aipp3 FLA, Repeat 1): 1.1e-5 | NRO-qPCR, AT2G27900 ([1]; aipp3 FLA, Repeat 1): 1.5e-5 | NRO-qPCR, FT ([1]; aipp3 FLA, Repeat 1): 3e-6 | NRO-qPCR, SUC5 ([1]; aipp3 FLA, Repeat 1): 2e-6 | NRO-qPCR, AT1G71900 ([1]; aipp3 FLA, Repeat 2): 1e-5 | NRO-qPCR, AT2G27900 ([1]; aipp3 FLA, Repeat 2): 5e-5 | NRO-qPCR, FT ([1]; aipp3 FLA, Repeat 2): 1e-6 | NRO-qPCR, SUC5 ([1]; aipp3 FLA, Repeat 2): 2e-6 | NRO-qPCR, AT1G71900 ([1]; aipp3 FLA, Repeat 3): 1e-5 | NRO-qPCR, AT2G27900 ([1]; aipp3 FLA, Repeat 3): 7.2e-5 | NRO-qPCR, SUC5 ([1]; aipp3 FLA, Repeat 3): 1e-6 | NRO-qPCR, AGO5 ([1]; cpl2 FLA, Repeat 1): 1.31e-6 | NRO-qPCR, AT1G71900 ([1]; cpl2 FLA, Repeat 1): 2e-6 | NRO-qPCR, AT2G27900 ([1]; cpl2 FLA, Repeat 1): 1.6e-5 | NRO-qPCR, FT ([1]; cpl2 FLA, Repeat 1): 1e-6 | NRO-qPCR, SUC5 ([1]; cpl2 FLA, Repeat 1): 1e-5 | NRO-qPCR, AGO5 ([1]; cpl2 FLA, Repeat 2): 5.33e-7 | NRO-qPCR, AT1G71900 ([1]; cpl2 FLA, Repeat 2): 2e-6 | NRO-qPCR, AT2G27900 ([1]; cpl2 FLA, Repeat 2): 2.7e-5 | NRO-qPCR, FT ([1]; cpl2 FLA, Repeat 2): 2e-6 | NRO-qPCR, SUC5 ([1]; cpl2 FLA, Repeat 2): 7e-6 | NRO-qPCR, AT2G27900 ([1]; cpl2 FLA, Repeat 3): 1.1e-5 | NRO-qPCR, FT ([1]; cpl2 FLA, Repeat 3): 1e-6 | NRO-qPCR, SUC5 ([1]; cpl2 FLA, Repeat 3): 8e-6 | reduction of Pol II CTD phosphorylation (in words) (CDK kinases): reduce the phosphorylation of Pol II CTD by inhibiting the activity of CDK kinases
